Source: patent US20110166121A1 (LG LIFE SCIENCES LTD., priority 2008, published 2011)
Where a name gives a salt, the structure may show the parent alone.

Test system: Human platelet aggregation caused by ADP
Assay: Inhibition of ADP-induced platelet aggregation (Mimic-human PRP)
Assay type: cell-based
Details: 20 μM ADP, human platelet concentrate diluted with PPP, absorption at 595 nm
Experimental: Platelet Preparation for Aggregation Studies
Human platelet aggregation reaction test is a functional experiment method to verify whether a test compound is an agonist or an antagonist to ADP receptor. […] The platelet product isolated from whole blood was purchased from Chung-Nam blood center (Dae-joen, South Korea). The platelet was isolated from 400 mL of whole blood containing 56 mL of CPDA-1 anticoagulant. To isolate the platelet product, 400 mL of whole blood was centrifuged at 260×g for 5 minutes, and then obtained PRP (platelet rich plasma) was secondary centrifuged at 370×g for 6 minutes. Platelet pellet (10^9/mL) was suspended with 45 mL of plasma and then agitated over 1 hour at 22° C. blood reservoir to stabilize it. The stabilized platelet product was used in the experiment within 24 hours. PCs (Platelet Concentrates) were gently transferred to a new 50 ml-falcon tube. The number of platelet was counted by using animal blood counter (ABC Vet, ABX diagnostics, France). The volume of 30 mL of PCs collected from same donor was centrifuged at 1500 g for 10 min at room temperature to prepare platelet-poor plasma (PPP). The platelet count was adjusted to platelet number of 3˜4×10^8/mL by diluting with PPP.
Evaluation on Inhibitory Effect of ADP-Induced Aggregation
Inhibition of ADP-induced aggregation was determined in 96-well flat-bottom plates (Costar, USA) at room temperature. The diluted platelet was aliquoted into each well of 96 well plate in the volume of 188 μl. […] The platelet including test compounds was immediately mixed on a shaker at 1050 rpm for 1 min and incubated at room temperature for 20 min. Then, 10 μL volume of 400 μM ADP was added: the final concentration of 20 μM ADP in the total reaction volume of 0.2 mL/well. After shaking of the plate at room temperature for 3 min, the absorption of the samples was determined at 595 nm using a microtiter plate reader (Softmax, Molecular Devices).
A dose-dependent curve on serial dilutions of ADP was accomplished by adding vehicle (DMSO) instead of antagonists in order to calculate EC50 of ADP. Inhibition of aggregation was calculated from the increase of absorption at 595 nm at 3 min of the reaction incubation, compared to results of absorption between the 0 and 20 μM ADP control without antagonists. Sigmoidal dose-response curves and Ki were derived by non-linear regression analysis using the Prism software (GraphPad, San Diego Calif.).

Question: For `CCCc1cc2c(N3CCn4c(nnc4C(F)(F)F)C3)nc(OCCCn3cccc3)nc2s1` [Example 9-92, 7-[6-Propyl-2-(3-pyrrol-1-yl-propoxy)-thieno[2,3-d]pyrimidin-4-yl]-3-trifluoromethyl-5,6,7,8-tetrahydro-[1,2,4]triazolo[4,3-a]pyrazine], which Ki is on record?
Answer: Its Ki is 1300 nM.

Question: Which Ki does the source give for `CCCc1cc2c(N3CCn4c(nnc4C(F)(F)F)C3)nc(N3CC(O)C(NC(=O)C(C)(C)O)C3)nc2s1` (centres unmarked) [Example 7-23, 2-Hydroxy-N-{4-hydroxy-1-[6-propyl-4-(3-trifluoromethyl-5,6-dihydro-8H-[1,2,4]triazolo[4,3-a]pyrazin-7-yl)-thieno[2,3-d]pyrimidin-2-yl]-pyrrolidin-3-yl}-2-methyl-propionamide] here?
Answer: The Ki was 12 nM.

Question: With `CCCc1cc2c(N3CCn4c(nnc4C(F)(F)F)C3)nc(N3CCC[C@H](NC(C)=O)C3)nc2s1` [Example 7-9, Hydrochloric acid salt of N-{(S)-1-[6-Propyl-4-(3-trifluoromethyl-5,6-dihydro-8H-[1,2,4]triazolo[4,3-a]pyrazin-7-yl)-thieno[2,3-d]pyrimidin-2-yl]-piperidin-3-yl}-acetamide] as the compound, how does the Ki read?
Answer: Its Ki is 590 nM.

Question: With `CCCc1cc2c(N3CCn4c(nnc4C(F)(F)F)C3)nc(OCCF)nc2s1` [Example 9-83, 7-[2-(2-Fluoro-ethoxy)-6-propyl-thieno[2,3-d]pyrimidin-4-yl]-3-trifluoromethyl-5,6,7,8-tetrahydro-[1,2,4]triazolo[4,3-a]pyrazine] as the compound, how does the Ki read?
Answer: Its Ki is 0.3 nM.

Question: For `CCCc1cc2c(N3CCn4c(nnc4C(F)(F)F)C3)nc(OCCNC(C)=O)nc2s1` [Example 7-29, N-{2-[6-Propyl-4-(3-trifluoromethyl-5,6-dihydro-8H-[1,2,4]triazolo[4,3-a]pyrazin-7-yl)-thieno[2,3-d]pyrimidin-2-yloxy]-ethyl}-acetamide], which Ki is on record?
Answer: Its Ki is 3.1 nM.

Question: For `CCCc1cc2c(N3CCn4c(nnc4C(F)(F)F)C3)nc(N3CC4N=C(C)OC4C3)nc2s1` (centres unmarked) [Example 9-30, 7-[2-(2-Methyl-3a,4,6,6a-tetrahydro-pyrrolo[3,4-d]oxazol-5-yl)-6-propyl-thieno[2,3-d]pyrimidin-4-yl]-3-trifluoromethyl-5,6,7,8-tetrahydro-[1,2,4]triazolo[4,3-a]pyrazine], which Ki is on record?
Answer: Its Ki is 0.3 nM.

Question: For `CCCc1cc2c(N3CCn4c(nnc4C(F)(F)F)C3)nc(N3CC[C@H](NC(=O)COC)C3)nc2s1` [Example 1-102, 2-Methoxy-N-{(S)-1-[6-propyl-4-(3-trifluoromethyl-5,6-dihydro-8H-[1,2,4]triazolo[4,3-a]pyrazin-7-yl)-thieno[2,3-d]pyrimidin-2-yl]-pyrrolidin-3-yl}-acetamide], which Ki is on record?
Answer: The Ki was 8.6 nM.

Question: Which Ki does the source give for `CCCc1cc2c(N3CCn4c(nnc4C(F)(F)F)C3)nc(N(C)CCC#N)nc2s1` [Example 9-103, 3-{Methyl-[6-propyl-4-(3-trifluoromethyl-5,6-dihydro-8H-[1,2,4]triazolo[4,3-a]pyrazin-7-yl)-thieno[2,3-d]pyrimidin-2-yl]-amino}-propionitrile] here?
Answer: Its Ki is 70 nM.

Question: Which Ki does the source give for `CCCc1cc2c(N3CCn4c(nnc4C(F)(F)F)C3)nc(OCCN(CCO)C(C)=O)nc2s1` [Example 9-102, N-(2-Hydroxy-ethyl)-N-{2-[6-propyl-4-(3-trifluoromethyl-5,6-dihydro-8H-[1,2,4]triazolo[4,3-a]pyrazin-7-yl)-thieno[2,3-d]pyrimidin-2-yloxy]-ethyl}-acetamide] here?
Answer: The Ki was 8 nM.

Question: Which Ki does the source give for `CCCc1cc2c(N3CCn4c(nnc4C(F)(F)F)C3)nc(N3CC[C@H](NC(=O)CN)C3)nc2s1` [Example 1-101, 2-Amino-N-{(S)-1-[6-propyl-4-(3-trifluoromethyl-5,6-dihydro-8H-[1,2,4]triazolo[4,3-a]pyrazin-7-yl)-thieno[2,3-d]pyrimidin-2-yl]-pyrrolidin-3-yl}-acetamide] here?
Answer: Its Ki is 3.5 nM.

Question: For `CCCc1cc2c(N3CCn4c(nnc4C(F)(F)F)C3)nc(OCC(C)(C)NC=O)nc2s1` [Example 9-78, N-{1,1-Dimethyl-2-[6-propyl-4-(3-trifluoromethyl-5,6-dihydro-8H-[1,2,4]triazolo[4,3-a]pyrazin-7-yl)-thieno[2,3-d]pyrimidin-2-yloxy]-ethyl}-formamide], which Ki is on record?
Answer: Its Ki is 25 nM.

Question: How did the Ki turn out when `CCCc1cc2c(N3CCn4c(nnc4C(F)(F)F)C3)nc(OCCN3C(=O)CNC3=O)nc2s1` [Example 9-105, 3-{2-[6-Propyl-4-(3-trifluoromethyl-5,6-dihydro-8H-[1,2,4]triazolo[4,3-a]pyrazin-7-yl)-thieno[2,3-d]pyrimidin-2-yloxy]-ethyl}-imidazolidine-2,4-dione] was run?
Answer: The Ki was greater than 3000 nM.

Question: For `CCCc1cc2c(N3CCn4c(nnc4C(F)(F)F)C3)nc(OC[C@@H]3CCCN3C(C)=O)nc2s1` [Example 8-31, 1-{(S)-2-[6-Propyl-4-(3-trifluoromethyl-5,6-dihydro-8H-[1,2,4]triazolo[4,3-a]pyrazin-7-yl)-thieno[2,3-d]pyrimidin-2-yloxymethyl]-pyrrolidin-1-yl}-ethanone], which Ki is on record?
Answer: The Ki was 19 nM.

Question: How did the Ki turn out when `CCCc1cc2c(N3CCn4c(nnc4C(F)(F)F)C3)nc(N3CCC[C@H](NC(=O)C(C)C)C3)nc2s1` [Example 7-11, Hydrochloric acid salt of N-{(S)-1-[6-Propyl-4-(3-trifluoromethyl-5,6-dihydro-8H-[1,2,4]triazolo[4,3-a]pyrazin-7-yl)-thieno[2,3-d]pyrimidin-2-yl]-piperidin-3-yl}-isobutyramide] was run?
Answer: Its Ki is 280 nM.

Question: How did the Ki turn out when `CCCc1cc2c(N3CCn4c(nnc4C(F)(F)F)C3)nc(OCCNC(=O)C(C)(CO)CO)nc2s1` [Example 7-34, 3-Hydroxy-2-hydroxymethyl-2-methyl-N-{2-[6-propyl-4-(3-trifluoromethyl-5,6-dihydro-8H-[1,2,4]triazolo[4,3-a]pyrazin-7-yl)-thieno[2,3-d]pyrimidin-2-yloxy]-ethyl}-propionamide] was run?
Answer: The Ki was 16 nM.

Question: Which Ki does the source give for `CCCc1cc2c(N3CCn4c(nnc4C(F)(F)F)C3)nc(NC[C@H]3CCN(C(=O)C(C)C)C3)nc2s1` [Example 8-24, 2-Methyl-1-((R)-3-{[6-propyl-4-(3-trifluoromethyl-5,6-dihydro-8H-[1,2,4]triazolo[4,3-a]pyrazin-7-yl)-thieno[2,3-d]pyrimidin-2-ylamino]-methyl}-pyrrolidin-1-yl)-propan-1-one] here?
Answer: The Ki was 1400 nM.

Question: `CCCc1cc2c(N3CCn4c(nnc4C(F)(F)F)C3)nc(OC[C@@H]3CCCN3C(=O)C(C)C)nc2s1` [Example 8-33, 2-Methyl-1-{(S)-2-[6-propyl-4-(3-trifluoromethyl-5,6-dihydro-8H-[1,2,4]triazolo[4,3-a]pyrazin-7-yl)-thieno[2,3-d]pyrimidin-2-yloxymethyl]-pyrrolidin-1-yl}-propan-1-one] was tested. Which Ki did it give?
Answer: The Ki was 43 nM.

Question: `CCCc1cc2c(N3CCn4c(nnc4C(F)(F)F)C3)nc(-c3nc(C(=O)O)cs3)nc2s1` [Example 4-46, 2-[6-Propyl-4-(3-trifluoromethyl-5,6-dihydro-8H-[1,2,4]triazolo[4,3-a]pyrazin-7-yl)thieno[2,3-d]pyrimidin-2-yl]thiazole-4-carboxylic acid] was tested. Which Ki did it give?
Answer: The Ki was 25 nM.

Question: With `CCCc1cc2c(N3CCn4c(nnc4C(F)(F)F)C3)nc(N3CCCC(C(N)=O)C3)nc2s1` (centres unmarked) [Example 1-92, 1-[6-Propyl-4-(3-trifluoromethyl-5,6-dihydro-8H-[1,2,4]triazolo[4,3-a]pyrazin-7-yl)-thieno[2,3-d]pyrimidin-2-yl]-piperidine-3-carboxylic acid amide] as the compound, how does the Ki read?
Answer: Its Ki is 30 nM.

Question: With `CCCc1cc2c(N3CCn4c(nnc4C(F)(F)F)C3)nc(N3CC(O)C(NC(C)=O)C3)nc2s1` (centres unmarked) [Example 7-17, N-{4-Hydroxy-1-[6-propyl-4-(3-trifluoromethyl-5,6-dihydro-8H-[1,2,4]triazolo[4,3-a]pyrazin-7-yl)-thieno[2,3-d]pyrimidin-2-yl]-pyrrolidin-3-yl}-acetamide] as the compound, how does the Ki read?
Answer: Its Ki is 2.8 nM.

Question: Which Ki does the source give for `CCCc1cc2c(N3CCn4c(nnc4C(F)(F)F)C3)nc(OCCCN3CCCC3=O)nc2s1` [Example 9-85, 1-{3-[6-Propyl-4-(3-trifluoromethyl-5,6-dihydro-8H-[1,2,4]triazolo[4,3-a]pyrazin-7-yl)-thieno[2,3-d]pyrimidin-2-yloxy]-propyl}-pyrrolidin-2-one] here?
Answer: Its Ki is 2000 nM.

Question: With `CCCc1cc2c(N3CCn4c(nnc4C(F)(F)F)C3)nc(N3CCNC3=O)nc2s1` [Example 9-33, 1-[6-Propyl-4-(3-trifluoromethyl-5,6-dihydro-8H-[1,2,4]triazolo[4,3-a]pyrazin-7-yl)-thieno[2,3-d]pyrimidin-2-yl]-imidazolidin-2-one] as the compound, how does the Ki read?
Answer: The Ki was 41 nM.

Question: Which Ki does the source give for `CCCc1cc2c(N3CCn4c(nnc4C(F)(F)F)C3)nc(NC[C@@H]3CCN(C(=O)C(C)C)C3)nc2s1` [Example 8-21, 2-Methyl-1-((S)-3-{[6-propyl-4-(3-trifluoromethyl-5,6-dihydro-8H-[1,2,4]triazolo[4,3-a]pyrazin-7-yl)-thieno[2,3-d]pyrimidin-2-ylamino]-methyl}-pyrrolidin-1-yl)-propan-1-one] here?
Answer: The Ki was 270 nM.
